Reference: BindingDB's records for doi:10.1021/jm7014149 (Vu University Amsterdam, 2008)

Assays:
Conditions in all cases: pH 7.4; 25 °C
Histamine H4 receptor = Histamine H4 receptor (Homo sapiens, UniProt Q9H3N8); assay: H4R Radioligand Binding Assay
Description: (§1) Ligand displacement assays were performed on CHO cells membranes expressing hH4R. Retained radioactivity was determined by liquid scintillation counting. Nonspecific binding was determined in the presence of 10 uM histamine. The Ki values were calculated based on an experimentally determined appropriate Kd value according to Cheng and Prusoff.

Histamine H3 receptor [1] = target: T1, Histamine H3 receptor (Homo sapiens, UniProt Q9Y5N1); assay: H3R Radioligand Binding Assay
T1 sequence (Q9Y5N1 whole entry): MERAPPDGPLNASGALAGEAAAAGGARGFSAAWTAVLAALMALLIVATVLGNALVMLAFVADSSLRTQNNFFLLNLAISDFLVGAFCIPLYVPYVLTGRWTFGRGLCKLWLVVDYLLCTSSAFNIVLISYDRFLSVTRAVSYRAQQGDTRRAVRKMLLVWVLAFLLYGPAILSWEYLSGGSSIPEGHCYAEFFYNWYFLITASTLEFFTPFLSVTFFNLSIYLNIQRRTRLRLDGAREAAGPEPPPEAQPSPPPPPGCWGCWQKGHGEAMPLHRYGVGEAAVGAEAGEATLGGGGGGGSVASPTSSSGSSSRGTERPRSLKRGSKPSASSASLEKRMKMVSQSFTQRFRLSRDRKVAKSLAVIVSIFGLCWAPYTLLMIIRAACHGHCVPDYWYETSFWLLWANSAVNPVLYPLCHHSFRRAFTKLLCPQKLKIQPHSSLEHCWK

Histamine H3 receptor [2] = target: T1, Histamine H3 receptor; assay: Radioligand Binding Assay and Functional [35S]GTP-gamma-S Binding Assay
Description: as §1, with “hH3R.” for “hH4R.”, “1” for “10”, “thioperamide.” for “histamine.”, “Prusoff. EC50 is a measure of functional property of compound on [35S]GTP-gamma-S binding to membranes expressing H3R receptors.” for “Prusoff.”

Chain of Histamine H4 receptor (Q9H3N8 whole entry): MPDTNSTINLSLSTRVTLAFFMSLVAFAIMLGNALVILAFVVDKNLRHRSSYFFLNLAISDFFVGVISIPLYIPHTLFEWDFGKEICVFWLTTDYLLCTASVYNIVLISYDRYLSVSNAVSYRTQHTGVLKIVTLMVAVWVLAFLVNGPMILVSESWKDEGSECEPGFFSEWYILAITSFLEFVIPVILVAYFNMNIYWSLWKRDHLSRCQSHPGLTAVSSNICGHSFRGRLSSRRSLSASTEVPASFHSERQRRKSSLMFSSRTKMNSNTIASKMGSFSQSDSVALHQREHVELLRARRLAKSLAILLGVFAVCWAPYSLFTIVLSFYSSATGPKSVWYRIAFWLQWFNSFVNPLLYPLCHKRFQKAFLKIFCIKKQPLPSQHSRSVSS

Compound | Ki (Histamine H4 receptor) [nM] | Ki (Histamine H3 receptor [1]) [nM] | Ki (Histamine H3 receptor [2]) [nM]
CC(C)(C)CC(=O)c1cccc(Cc2cnc[nH]2)c1 [1-[3-(1H-imidazol-4-ylmethyl)phenyl]-3,3-dimethylbutan-1-one] | 6 |  | 
C(#Cc1cccc(Cc2cnc[nH]2)c1)c1ccccc1 [4-{[3-(2-phenylethynyl)phenyl]methyl}-1H-imidazole] |  | 2 | 
CC(C)(C)C#Cc1cccc(Cc2c[nH]cn2)c1 [4-{[3-(3,3-dimethylbut-1-yn-1-yl)phenyl]methyl}-1H-imidazole] | 6 |  | 4
CC1CC(C)(C)N=C(c2cccc(Cc3c[nH]cn3)c2)O1 (stereo unspecified) [2-[3-(1H-imidazol-4-ylmethyl)phenyl]-4,4,6-trimethyl-5,6-dihydro-4H-1,3-oxazine] |  |  | 1
CCCC#Cc1cccc(Cc2c[nH]cn2)c1 [4-{[3-(pent-1-yn-1-yl)phenyl]methyl}-1H-imidazole] |  | 3 | 
